Laboratory results taken from patent US20230263792A1, “USE OF 2,3,5-SUBSTITUTED THIOPHENE COMPOUND FOR PREVENTING, ALLEVIATION, OR TREATING MASTOCYTOSIS” (PHAROS IBIO CO., LTD, priority 2020, published 2023).

Key:
[1] = test system: HMC-1.2 cells subcutaneous tumor; test: Tumor growth inhibition in mastocytosis mouse model with HMC-1.2 cell line; format: in vivo, NOD SCID female mice
Description: (§1) As mice, 6-8-week-old NOD SCID female mice (18 to 22 g) (GemPharmatech Co., Ltd.) were prepared. Mice were acclimatized for 7 days before use in the experiment, and mice with abnormal health were excluded from the experiment. Mice were bred in a cage (300×180×150 mm) at a 22±3° C. and a relative humidity of 40% to 70% with a 12-hr light/12-hr dark cycle. Mice were allowed access to sterilized dry granular food (Beijing Keaoxieli Feed Co., Ltd., Beijing, China) and water ad libitum for the entire experimental period except for the period specified in the protocol.
50 ml of HMC-1.2 cells suspension-cultured in a 75T flask were placed in a conical tube and centrifuged at 1,200 rpm for 2 minutes, centrifuged with DPBS (Dulbecco's Phosphate-Buffered Saline, Welgene) at 1,200 rpm for 2 minutes, washed, and then suspended in RPMI1640 (Welgene) without antibiotics and fetal bovine serum (FBS).
Thereafter, when the average tumor volume reached 150 to 200 mm^3, 4 mice were assigned to each group so that the average tumor volume at each group and treatment time was the same between the groups.
In addition, the width and length of the tumor were measured using a caliper at 3-day intervals, and the tumor volume was calculated using the following equation.
(V: tumor volume, W: tumor width, and L: tumor length)
In addition, the mice were sacrificed 3 weeks after the start of oral administration of each drug and the tumor weight was measured using a digital scale. For each data, one-way ANOVA was used to test the significance of each group.

[2] = test system: neoplastic mast cells exhibiting wild type (wt) KIT or the rarely occurring F522C-mutated variant of KIT; details: literature, background; cited from earlier work
[3] = test system: HMC-1.2 cell line (imatinib-resistant cell line, having c-kit G560V/D816V mutation); test: Growth inhibition of mastocytosis cell line HMC-1.2; format: cell-based; details: HMC-1.2, 72 hours
Description: [Worded in the source for another cell line; this cell line is reported under the same test.] Specifically, 100 μl of a Ba/F3 cell line with a c-kit D816V mutation (FIG. 1) was added to each well of a 96-well plate at a concentration of 10,000 cells/100 μl. […] As the control compounds, imatinib and sunitinib which are c-kit inhibitors were used.

[4] = test system: neoplastic mast cells with the c-KIT mutation D816V; details: literature, background; cited from earlier work
[5] = test system: inflammatory response caused by mastocytosis (HMC-1.2 mouse model); test: Spleen/body weight ratio in mastocytosis mouse model (inflammatory response); format: in vivo, NOD SCID female mice
Description: as §1
50 ml of HMC-1.2 cells suspension-cultured in a 75T flask were placed in a conical tube and centrifuged at 1,200 rpm for 2 minutes, centrifuged with DPBS (Dulbecco's Phosphate-Buffered Saline, Welgene) at 1,200 rpm for 2 minutes, washed, and then suspended in RPMI1640 (Welgene) without antibiotics and fetal bovine serum (FBS). Then, the cells were stained with trypan blue, counted with a hemocytometer, and then HMC-1.2 cells (1×10^6) in a mixture of 0.1 ml L-15 and Matrigel (BD, cat. No. 356234) (1:1) were subcutaneously injected into the right flanks of mice anesthetized by intraperitoneal administration of Avertin (250 mg/kg), thus inducing tumors.
Thereafter, when the average tumor volume reached 150 to 200 mm^3, 4 mice were assigned to each group so that the average tumor volume at each group and treatment time was the same between the groups. Then, each of imatinib at a dose of 90 mg/kg, sunitinib at doses of 20 and 40 mg/kg, and PHI-101 at doses of 7, 20, 40 and 80 mg/kg was administered orally to the mice once daily for 3 weeks. For oral administration, each compound was dissolved in 5% 1-methyl-2-pyrrolidone and then completely mixed in 15% Kolliphor, 30% PEG E400 HS15 and 50% 0.05M citric acid.
Specifically, 3 weeks after administering each drug to the mastocytosis mouse model of Example 3-1, the mice were sacrificed, the body weight and spleen weight were measured using a digital scale, and then the spleen/body weight ratio was calculated.

[6] = 90 mg/kg oral once daily for 3 weeks
[7] = 20 mg/kg oral once daily for 3 weeks
[8] = 40 mg/kg oral once daily for 3 weeks

Which results are given for `Cc1ccc(NC(=O)c2ccc(CN3CCN(C)CC3)cc2)cc1Nc1nccc(-c2cccnc2)n1` [Imatinib, reference compound]?
Tumor growth inhibition (TGI) (%) Tumor weight [1, 6]: 7.8%; growth of neoplastic mast cells with wt KIT or F522C KIT [2]: counteract the growth; GI50 [3]: 17100 nM; growth of neoplastic mast cells with c-KIT D816V [4]: failed to inhibit the growth; Spleen/body weight ratio % of control [5, 6]: 97.7%; Spleen/body weight ratio Inhibition (%) [5, 6]: 2.3%

With `CCN(CC)CCNC(=O)c1c(C)[nH]c(/C=C2\C(=O)Nc3ccc(F)cc32)c1C` [Sunitinib, reference compound] as the molecule, how does the “Tumor growth inhibition (TGI) (%) Timor volume” value [1, 7] read?
The value was 37.3%.

And the “Tumor growth inhibition (TGI) (%) Tumor weight” value [1, 7]?
The value was 49.5%.

And the “Tumor growth inhibition (TGI) (%) Timor volume” value [1, 8]?
Its value is 46.2%.

And the “Tumor growth inhibition (TGI) (%) Tumor weight” value [1, 8]?
The value was 47.9%.

And the GI50 [3]?
The GI50 was 1300 nM.

And the “Spleen/body weight ratio % of control” value [5, 7]?
Its value is 104.3%.

What about the “Spleen/body weight ratio Inhibition (%)” value [5, 7] of the same molecule?
The value was −4.3%.

What about the “Spleen/body weight ratio % of control” value [5, 8] of the same molecule?
The value was 102.7%.

And the “Spleen/body weight ratio Inhibition (%)” value [5, 8]?
Its value is −2.7%.

For `Cc1ccc(C(=O)Nc2ccc(CN3CCN(C)CC3)c(C(F)(F)F)c2)cc1C#Cc1cnc2cccnn12` [Ponatinib], which GI50 [3] is on record?
The GI50 was 194 nM.

For `Cc1nc(Nc2ncc(C(=O)Nc3c(C)cccc3Cl)s2)cc(N2CCN(CCO)CC2)n1` [Dasatinib], which GI50 [3] is on record?
Its GI50 is 312 nM.
